Columns and labels:
[1] = tested on: SK-BR-3 cells (HER2 overexpressing cell line); test: SK-BR-3 cell proliferation inhibitory activity (CellTiter-Glo, 120 hours); format: cell-based; settings: Homo sapiens
How it was run: (§1)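 SK-BR-3 and BT-474 cells were plated at 5000/well 48 h ahead, and N-87 (5000) and HaCaT (3000) 24 h ahead. Compounds were tested at 11 DMSO-diluted concentrations: 0.2 nM–10 μM for SK-BR-3/BT-474, […]–5 μM for N-87 and 0.8 nM–45 μM for HaCaT. GI50 came from growth % versus control, in triplicate.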

[2] = tested on: BT-474 cells (HER2 overexpressing cell line); test: BT-474 cell proliferation inhibitory activity (CellTiter-Glo, 120 hours); format: cell-based; settings: Homo sapiens
How it was run: as §1

[3] = tested on: N-87 cells (HER2 overexpressing cell line); test: N-87 cell proliferation inhibitory activity (CellTiter-Glo, 72 hours); format: cell-based
How it was run: as §1

[4] = tested on: HaCaT cells (EGFR expressing cell line); test: HaCaT cell proliferation inhibitory activity (CellTiter-Glo, 72 hours); format: cell-based; settings: Homo sapiens
How it was run: as §1

[5] = tested on: Ba/F3 cells expressing EGFR S768I; test: Transduced Ba/F3 cell proliferation inhibitory activity, EGFR S768I; format: cell-based; settings: Mus musculus, BaF3, 72 hours
Protocol: (§2) For Ba/F3 cells, RPMI-1640 supplemented with 10% FBS and 5 ng/ml IL-3 (R&D Systems) was used. Transduced Ba/F3 cells were cultured by adding 1 μg/ml puromycin (Invitrogen) to the same medium.
(§3) 3000 to 5000 cells were aliquoted into each well of a white clear bottom 96 well plate (Corning) 24 hours before treatment with the compounds of Examples. The compounds of Examples were diluted in dimethyl sulfoxide (three-fold dilution, a total of 12 concentrations) and injected each in an amount of 1 μl to a final concentration of 0.2 nM to 5 μM. For the measurement of living cells, the cells were stored at room temperature for 10 minutes using CellTiter-Glo luminescent cell-viability reagent (Promega) in 72 hours after treatment with the compounds of Examples, and the luminescence intensity thereof was measured using a reader (SynergyNeo, Biotek). Each test was repeated three times. The result values were calculated as a cell growth rate (%) compared to those of the control group. A graph was created using the GraphPad Prism version 8.3.0 program, and GI50 values were calculated.

[6] = tested on: Ba/F3 cells expressing EGFR WT; test: Transduced Ba/F3 cell proliferation inhibitory activity, EGFR WT; format: cell-based; settings: Mus musculus, BaF3, 72 hours
Protocol: as §2, §3

HER2 = target: T1, HER2 (Homo sapiens, UniProt P04626); test: Biochemical kinase assay for HER2 (Reaction Biology Corp), ATP 10 μM, 10-dose IC50
T1 construct: purchased Reaction Biology Corp
Protocol: (§4) Biochemical kinase assays for HER2 and EGFR were performed by Reaction Biology Corp (San Diego, USA).

EGFR = target: T2, EGFR (Homo sapiens, UniProt P00533); test: Biochemical kinase assay for EGFR (Reaction Biology Corp), ATP 10 μM, 10-dose IC50
T2 construct: purchased Reaction Biology Corp
Protocol: as §4

[7] = tested on: Ba/F3 cells expressing HER2 L869R; test: Transduced Ba/F3 cell proliferation inhibitory activity, HER2 L869R; format: cell-based; settings: Mus musculus, BaF3, 72 hours
Protocol: as §2, §3

[8] = tested on: Ba/F3 cells expressing HER2 L756S; test: Transduced Ba/F3 cell proliferation inhibitory activity, HER2 L756S; format: cell-based; settings: Mus musculus, BaF3; Ba/F3 HER2 L755S, 72 hours
Protocol: as §2, §3

[9] = tested on: Ba/F3 cells expressing HER2 T798I; test: Transduced Ba/F3 cell proliferation inhibitory activity, HER2 T798I; format: cell-based; settings: Mus musculus, BaF3, 72 hours
Protocol: as §2, §3

[10] = tested on: Ba/F3 cells expressing HER2 T862A; test: Transduced Ba/F3 cell proliferation inhibitory activity, HER2 T862A; format: cell-based; settings: Mus musculus, BaF3, 72 hours
Protocol: as §2, §3

[11] = tested on: Ba/F3 cells expressing EGFR G719A; test: Transduced Ba/F3 cell proliferation inhibitory activity, EGFR G719A; format: cell-based; settings: Mus musculus, BaF3, 72 hours
Protocol: as §2, §3

[12] = tested on: Ba/F3 cells expressing EGFR L861Q; test: Transduced Ba/F3 cell proliferation inhibitory activity, EGFR L861Q; format: cell-based; settings: Mus musculus, BaF3, 72 hours
Protocol: as §2, §3

[13] = tested on: Ba/F3 cells expressing EGFR G719A/S768I; test: Transduced Ba/F3 cell proliferation inhibitory activity, EGFR G719A/S768I; format: cell-based; settings: Mus musculus, BaF3, 72 hours
Protocol: as §2, §3

[14] = tested on: Ba/F3 cells expressing EGFR Del19/T790M; test: Transduced Ba/F3 cell proliferation inhibitory activity, EGFR Del19/T790M; format: cell-based; settings: Mus musculus, BaF3, 72 hours
Protocol: as §2, §3

[15] = tested on: Ba/F3 cells expressing HER2 WT; test: Transduced Ba/F3 cell proliferation inhibitory activity, HER2 WT; format: cell-based; settings: Mus musculus, BaF3, 72 hours
Protocol: as §2, §3

T1 sequence (P04626 23-1255): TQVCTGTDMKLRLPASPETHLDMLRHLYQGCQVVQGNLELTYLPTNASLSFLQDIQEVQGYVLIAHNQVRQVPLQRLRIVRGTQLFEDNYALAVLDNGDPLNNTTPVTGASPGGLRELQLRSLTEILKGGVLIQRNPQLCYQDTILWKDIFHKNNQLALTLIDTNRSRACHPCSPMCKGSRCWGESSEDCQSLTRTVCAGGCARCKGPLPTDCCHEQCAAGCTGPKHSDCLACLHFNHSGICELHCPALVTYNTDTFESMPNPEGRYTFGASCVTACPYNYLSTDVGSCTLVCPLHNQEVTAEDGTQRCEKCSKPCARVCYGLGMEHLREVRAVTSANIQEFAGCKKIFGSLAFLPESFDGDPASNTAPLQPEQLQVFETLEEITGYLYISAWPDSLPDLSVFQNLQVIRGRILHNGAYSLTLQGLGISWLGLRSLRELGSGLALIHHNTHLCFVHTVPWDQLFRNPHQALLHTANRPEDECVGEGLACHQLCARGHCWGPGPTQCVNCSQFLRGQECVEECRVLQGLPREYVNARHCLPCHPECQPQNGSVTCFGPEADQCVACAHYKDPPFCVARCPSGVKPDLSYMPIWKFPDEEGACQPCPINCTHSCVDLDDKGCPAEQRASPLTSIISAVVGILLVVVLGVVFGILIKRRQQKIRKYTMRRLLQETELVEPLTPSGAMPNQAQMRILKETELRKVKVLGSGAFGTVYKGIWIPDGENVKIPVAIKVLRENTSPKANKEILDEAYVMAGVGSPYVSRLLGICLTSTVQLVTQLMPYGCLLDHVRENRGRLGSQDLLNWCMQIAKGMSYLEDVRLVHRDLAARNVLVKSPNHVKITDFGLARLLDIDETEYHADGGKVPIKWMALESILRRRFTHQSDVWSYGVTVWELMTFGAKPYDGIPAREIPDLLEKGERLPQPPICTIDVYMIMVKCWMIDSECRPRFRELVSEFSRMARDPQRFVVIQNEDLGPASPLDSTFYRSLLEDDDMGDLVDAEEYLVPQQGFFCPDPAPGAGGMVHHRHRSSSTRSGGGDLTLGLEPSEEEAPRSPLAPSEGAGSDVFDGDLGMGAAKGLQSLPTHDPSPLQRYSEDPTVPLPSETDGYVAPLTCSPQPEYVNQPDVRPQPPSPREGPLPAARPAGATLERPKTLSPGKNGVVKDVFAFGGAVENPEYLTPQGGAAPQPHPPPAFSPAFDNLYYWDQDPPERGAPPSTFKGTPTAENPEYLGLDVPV
T2 sequence (P00533 25-1210): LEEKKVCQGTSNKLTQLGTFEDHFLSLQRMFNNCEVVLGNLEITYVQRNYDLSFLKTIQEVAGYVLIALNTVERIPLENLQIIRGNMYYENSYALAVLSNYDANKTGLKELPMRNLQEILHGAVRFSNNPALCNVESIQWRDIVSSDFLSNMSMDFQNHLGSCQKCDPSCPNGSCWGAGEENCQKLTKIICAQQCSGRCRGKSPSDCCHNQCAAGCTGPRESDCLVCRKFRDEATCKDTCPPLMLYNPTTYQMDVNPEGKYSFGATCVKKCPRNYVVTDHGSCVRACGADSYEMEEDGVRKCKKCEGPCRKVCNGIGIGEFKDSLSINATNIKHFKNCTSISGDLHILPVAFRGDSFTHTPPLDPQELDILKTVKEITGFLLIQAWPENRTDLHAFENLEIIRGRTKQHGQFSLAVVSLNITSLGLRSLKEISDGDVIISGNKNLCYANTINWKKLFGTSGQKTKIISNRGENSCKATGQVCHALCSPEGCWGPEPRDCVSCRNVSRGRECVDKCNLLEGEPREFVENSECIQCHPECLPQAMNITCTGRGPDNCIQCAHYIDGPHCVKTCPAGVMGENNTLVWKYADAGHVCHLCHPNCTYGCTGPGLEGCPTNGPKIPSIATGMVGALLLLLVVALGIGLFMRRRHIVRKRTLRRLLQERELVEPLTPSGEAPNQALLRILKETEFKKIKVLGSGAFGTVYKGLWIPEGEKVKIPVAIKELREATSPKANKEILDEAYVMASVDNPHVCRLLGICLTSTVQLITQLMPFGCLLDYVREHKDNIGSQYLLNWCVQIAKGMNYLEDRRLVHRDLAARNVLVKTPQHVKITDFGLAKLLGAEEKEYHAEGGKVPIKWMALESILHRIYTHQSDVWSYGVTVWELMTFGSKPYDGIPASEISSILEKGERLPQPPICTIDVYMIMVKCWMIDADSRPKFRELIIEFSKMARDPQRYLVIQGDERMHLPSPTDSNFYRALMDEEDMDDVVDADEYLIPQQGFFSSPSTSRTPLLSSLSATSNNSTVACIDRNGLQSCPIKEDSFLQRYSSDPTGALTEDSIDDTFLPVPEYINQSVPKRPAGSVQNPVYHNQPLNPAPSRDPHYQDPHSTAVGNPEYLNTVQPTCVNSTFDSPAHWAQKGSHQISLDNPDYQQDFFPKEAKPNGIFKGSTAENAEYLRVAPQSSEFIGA

GI50 [1]	GI50 [2]	GI50 [5]	GI50 [6]	IC50 (HER2)	IC50 (EGFR)	GI50 [7]	GI50 [8]	GI50 [9]	GI50 [10]	GI50 [11]	GI50 [12]	GI50 [13]	GI50 [14]	GI50 [15]	SMILES	GI50 [3]	GI50 [4]
≤ 150 nM	≤ 150 nM	≤ 50 nM	≤ 50 nM	≤ 50 nM	≤ 50 nM										COc1cc2ncnc(Nc3cc(-c4ccco4)ccc3OC)c2cc1NC(=O)/C=C/[C@H]1CCCN1C [Example 306, (R,E)-N-(4-((5-(furan-2-yl)-2-methoxyphenyl)amino)-7-methoxyquinazolin-6-yl)-3-(1-methylpyrrolidin-2-yl)acrylamide]	≤ 150 nM	≤ 150 nM
	≤ 150 nM						≤ 50 nM	100 to 500 nM	≤ 50 nM					≤ 50 nM	C=CC(=O)N1CCC(Nc2cc3c(Nc4cc(-c5ccco5)ccc4OC)ncnc3cc2OCC)CC1 [Example 300, 1-(4-((7-ethoxy-4-((5-(furan-2-yl)-2-methoxyphenyl)amino)quinazolin-6-yl)amino)piperidin-1-yl)prop-2-en-1-one]	≤ 150 nM	≤ 150 nM
≤ 150 nM						≤ 50 nM		≤ 50 nM							C=CC(=O)N1CCC(Oc2cc3c(Nc4cc(-c5cccs5)ccc4OC)ncnc3cc2OC)CC1 [Example 78, 1-(4-((7-methoxy-4-((2-methoxy-5-(thiophen-2-yl)phenyl)amino)quinazolin-6-yl)oxy)piperidin-1-yl)prop-2-en-1-one]		
≤ 150 nM	≤ 150 nM	≤ 50 nM	≤ 50 nM	≤ 50 nM		≤ 50 nM	≤ 50 nM	≤ 50 nM	≤ 50 nM	≤ 50 nM	≤ 50 nM	≤ 50 nM	≤ 50 nM	≤ 50 nM	C=CC(=O)N1CCC(Oc2cc3c(Nc4cc(-c5ccco5)ccc4OC)ncnc3cc2OC)CC1 [Example 80, 1-(4-((4-((5-(furan-2-yl)-2-methoxyphenyl)amino)-7-methoxy-quinazolin-6-yl)oxy)piperidin-1-yl)prop-2-en-1-one]		≤ 150 nM
≤ 150 nM	≤ 150 nM					≤ 50 nM	≤ 50 nM		≤ 50 nM						C=CC(=O)N1CCC(Oc2cc3c(Nc4cc(-c5ccco5)ccc4OC)ncnc3cc2OC)C(F)C1 (stereo not shown) [Example 112, 1-(3-fluoro-4-((4-((5-(furan-2-yl)-2-methoxyphenyl)amino)-7-methoxy-quinazolin-6-yl)oxy)piperidin-1-yl)prop-2-en-1-one]	≤ 150 nM	≤ 150 nM

Further lines, the molecule ahead of its results:

SMILES	GI50 [1]	GI50 [2]	GI50 [5]	GI50 [6]	IC50 (HER2)	IC50 (EGFR)	GI50 [7]	GI50 [8]	GI50 [9]	GI50 [10]	GI50 [11]	GI50 [12]	GI50 [13]	GI50 [14]	GI50 [15]	GI50 [3]	GI50 [4]
COc1cc2ncnc(Nc3cc(-c4ccco4)ccc3OC)c2cc1NC(=O)/C(F)=C\[C@H]1CCCN1C [Example 307, (R,E)-2-fluoro-N-(4-((5-(furan-2-yl)-2-methoxyphenyl)amino)-7-methoxyquinazolin-6-yl)-3-(1-methylpyrrolidin-2-yl)acrylamide]	≤ 150 nM	≤ 150 nM	≤ 50 nM	≤ 50 nM												≤ 150 nM	≤ 150 nM
C=CC(=O)N1CCC(Oc2cc3c(Nc4cc(-c5ccc(F)cc5F)ccc4OC)ncnc3cc2OC)CC1 [Example 68, 1-(4-((4-((2′,4′-difluoro-4-methoxy-[1,1′-biphenyl]-3-yl)amino)-7-methoxy-quinazolin-6-yl)oxy)piperidin-1-yl)prop-2-en-1-one]	≤ 150 nM	≤ 150 nM	50 to 100 nM	50 to 100 nM	≤ 50 nM	≤ 50 nM	≤ 50 nM	≤ 50 nM	100 to 500 nM	≤ 50 nM	≤ 50 nM	≤ 50 nM	≤ 50 nM	≤ 50 nM	≤ 50 nM	≤ 150 nM	≤ 150 nM
COc1cc2ncnc(Nc3cc(-c4ccc(F)cc4F)ccc3OC)c2cc1NC(=O)/C=C/[C@H]1CCCN1C [Example 305, (R,E)-N-(4-((2′,4′-difluoro-4-methoxy-[1,1′-biphenyl]-3-yl)amino)-7-methoxyquinazolin-6-yl)-3-(1-methylpyrrolidin-2-yl)acrylamide]	≤ 150 nM	≤ 150 nM			≤ 50 nM	≤ 50 nM		≤ 50 nM	≤ 50 nM	≤ 50 nM					≤ 50 nM	≤ 150 nM	≤ 150 nM
C=CC(=O)N1CCC(Oc2cc3c(Nc4cc(-c5ccc(F)cc5F)ccc4OC)ncnc3cc2OC)C(F)C1 (stereo not shown) [Example 143, 1-(4-((4-((2′,4′-difluoro-4-methoxy-[1,1′-biphenyl]-3-yl)amino)-7-methoxy-quinazolin-6-yl)oxy)-3-fluoropiperidin-1-yl)prop-2-en-1-one]	≤ 150 nM	≤ 150 nM					≤ 50 nM	≤ 50 nM		≤ 50 nM						≤ 150 nM	≤ 150 nM
COc1cc2ncnc(Nc3cc(-c4ccc(F)cc4F)ccc3OC)c2cc1NC(=O)/C(F)=C\[C@H]1CCCN1C [Example 304, (R,E)-N-(4-((2′,4′-difluoro-4-methoxy-[1,1′-biphenyl]-3-yl)amino)-7-methoxyquinazolin-6-yl)-2-fluoro-3-(1-methylpyrrolidin-2-yl)acrylamide]		≤ 150 nM			≤ 50 nM	≤ 50 nM										≤ 150 nM	≤ 150 nM
